From patent US20260000692A1, “Substituted N-(Pyridin-2-yl)Acetamide Derivatives as CDK12/13 Inhibitors” (Aurigene Oncology Limited, priority 2022, published 2026) come the findings set out here.

The test addresses CDK12 (Homo sapiens, UniProt Q9NYV4). Nature of the test: Biochemical assay for CDK12 (LANCE TR-FRET, IC50 determination). To be noted: for IC50: CDK12, IC50 class, read-out: IC50 μM (in range); for inhibition at 10 µM: compound at 10 μM, read-out: CDK12 % Inhibition @ 10 μM. The essentials:
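30 nM CDK12 phosphorylated 100 nM ULight-4E-BP1 (Thr37/Thr46) peptide at 100 µM ATP, as printed, in HEPES pH 7.5 buffer with MgCl2 and DTT. Compound and enzyme were preincubated 60 min, then reacted 60 min at room temperature before stopping with EDTA and Eu anti-phospho antibody. TR-FRET 665/615 ratio gave sigmoidal IC50 fits.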

The structures appear in SMILES notation. Some results are limits rather than exact numbers.

Sequence of CDK12 (Q9NYV4 whole entry): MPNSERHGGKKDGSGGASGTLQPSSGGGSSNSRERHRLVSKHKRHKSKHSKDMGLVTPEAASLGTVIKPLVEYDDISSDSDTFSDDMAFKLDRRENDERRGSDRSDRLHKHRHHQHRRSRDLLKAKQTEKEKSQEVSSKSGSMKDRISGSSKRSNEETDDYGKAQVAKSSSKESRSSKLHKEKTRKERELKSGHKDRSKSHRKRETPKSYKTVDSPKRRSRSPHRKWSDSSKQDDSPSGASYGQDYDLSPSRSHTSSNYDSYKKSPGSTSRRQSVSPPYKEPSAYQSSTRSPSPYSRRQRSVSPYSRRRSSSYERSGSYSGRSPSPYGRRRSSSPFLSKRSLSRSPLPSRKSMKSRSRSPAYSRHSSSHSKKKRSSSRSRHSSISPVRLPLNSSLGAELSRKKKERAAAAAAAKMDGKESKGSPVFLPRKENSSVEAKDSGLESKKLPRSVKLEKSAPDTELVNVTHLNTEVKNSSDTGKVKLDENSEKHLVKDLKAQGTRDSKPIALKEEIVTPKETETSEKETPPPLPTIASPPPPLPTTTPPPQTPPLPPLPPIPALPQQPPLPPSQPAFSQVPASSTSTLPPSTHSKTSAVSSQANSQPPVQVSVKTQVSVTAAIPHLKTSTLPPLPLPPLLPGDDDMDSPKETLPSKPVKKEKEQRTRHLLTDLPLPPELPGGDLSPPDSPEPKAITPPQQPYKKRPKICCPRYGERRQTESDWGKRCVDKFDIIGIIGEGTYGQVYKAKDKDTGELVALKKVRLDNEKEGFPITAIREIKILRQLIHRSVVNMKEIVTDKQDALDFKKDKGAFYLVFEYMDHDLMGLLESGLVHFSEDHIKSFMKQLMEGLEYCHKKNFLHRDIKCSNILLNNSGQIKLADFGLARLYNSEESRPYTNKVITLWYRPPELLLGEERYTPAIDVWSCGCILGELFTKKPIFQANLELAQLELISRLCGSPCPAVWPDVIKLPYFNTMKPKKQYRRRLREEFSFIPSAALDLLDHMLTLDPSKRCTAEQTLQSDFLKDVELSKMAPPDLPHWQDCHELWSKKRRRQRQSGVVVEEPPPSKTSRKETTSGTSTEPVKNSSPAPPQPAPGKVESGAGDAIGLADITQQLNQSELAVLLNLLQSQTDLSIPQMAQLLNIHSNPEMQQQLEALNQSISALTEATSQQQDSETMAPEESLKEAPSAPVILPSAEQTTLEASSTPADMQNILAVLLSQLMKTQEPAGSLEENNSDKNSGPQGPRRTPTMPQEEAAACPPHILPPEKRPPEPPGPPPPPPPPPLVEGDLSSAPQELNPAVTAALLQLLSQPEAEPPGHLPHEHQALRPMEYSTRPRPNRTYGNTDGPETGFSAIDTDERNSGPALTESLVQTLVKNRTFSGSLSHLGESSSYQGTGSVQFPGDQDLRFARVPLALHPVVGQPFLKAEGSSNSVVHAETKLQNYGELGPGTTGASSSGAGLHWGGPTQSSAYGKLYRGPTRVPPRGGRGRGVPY
Sequence of CDK12 (O75909 whole entry partner): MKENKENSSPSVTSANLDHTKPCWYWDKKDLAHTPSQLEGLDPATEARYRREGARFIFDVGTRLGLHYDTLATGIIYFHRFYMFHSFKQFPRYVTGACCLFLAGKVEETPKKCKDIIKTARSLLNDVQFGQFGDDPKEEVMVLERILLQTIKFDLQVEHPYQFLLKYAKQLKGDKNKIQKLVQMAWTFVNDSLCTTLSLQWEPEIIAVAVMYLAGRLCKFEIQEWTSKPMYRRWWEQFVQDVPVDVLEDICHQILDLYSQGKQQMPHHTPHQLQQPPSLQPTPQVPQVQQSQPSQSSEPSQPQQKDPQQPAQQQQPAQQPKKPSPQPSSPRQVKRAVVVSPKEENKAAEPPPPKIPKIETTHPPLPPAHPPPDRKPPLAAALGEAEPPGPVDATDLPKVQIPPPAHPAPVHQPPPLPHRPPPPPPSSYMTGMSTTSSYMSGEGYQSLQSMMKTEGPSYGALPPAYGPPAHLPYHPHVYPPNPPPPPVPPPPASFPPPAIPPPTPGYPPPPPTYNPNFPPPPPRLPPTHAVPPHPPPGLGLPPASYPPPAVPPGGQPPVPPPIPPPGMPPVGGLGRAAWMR

As usually defined, the IC50 is the concentration at which inhibition is half-maximal. As usually defined, the inhibition is how much of the control response was suppressed. As to `COc1cc(C#N)nc(-c2ccc(CC(=O)Nc3cc(OC)c(Cl)cn3)cn2)c1` [Compound 165, N-(5-chloro-4-methoxypyridin-2-yl)-2-(6′-cyano-4′-methoxy-[2,2′-bipyridin]-5-yl)acetamide], the IC50 lay within 0.01 to 0.1 µM and the inhibition at 10 µM is 72%.

As for `COCCOc1cc(C#N)nc(-c2ccc(CC(=O)Nc3cc(OC)c(Cl)cn3)cn2)c1` [Compound 169, N-(5-chloro-4-methoxypyridin-2-yl)-2-(6′-cyano-4′-(2-methoxyethoxy)-[2,2′-bipyridin]-5-yl)acetamide], the IC50 was 0.01 to 0.1 µM and the inhibition at 10 µM is 95%.

In the case of `COc1cc(NC(=O)Cc2ccc(-c3cc(OCCN(C)C)cc(C#N)n3)nc2)ncc1Cl` [Compound 170, N-(5-chloro-4-methoxypyridin-2-yl)-2-(6′-cyano-4′-(2-(dimethylamino)ethoxy)-[2,2′-bipyridin]-5-yl)acetamide], the IC50 was in the range of 0.01 to 0.1 µM and the inhibition at 10 µM is 90%.

Consider `COc1cc(NC(=O)Cc2ccc(-c3cc(OC4CCN(C)C4)cc(C#N)n3)nc2)ncc1Cl` (stereo not drawn) [Compound 171, N-(5-chloro-4-methoxypyridin-2-yl)-2-(6′-cyano-4′-((1-methylpyrrolidin-3-yl)oxy)-[2,2′-bipyridin]-5-yl)acetamide], for which the IC50 was less than 0.01 µM and the inhibition at 10 µM is 83%.

As to `COc1cc(NC(=O)Cc2ccc(-c3cc(N(C)CCN(C)C)cc(C#N)n3)nc2)ncc1Cl` [Compound 173], the IC50 lay in the range of 0.01 to 0.1 µM and the inhibition at 10 µM was 90%.

In the case of `COc1cc(NC(=O)Cc2ccc(-c3cc(C(C)(C)O)cc(C#N)n3)nc2)ncc1Cl` [Compound 175, N-(5-chloro-4-methoxypyridin-2-yl)-2-(6′-cyano-4′-(2-hydroxypropan-2-yl)-[2,2′-bipyridin]-5-yl)acetamide], the IC50 is 0.01 to 0.1 µM and the inhibition at 10 µM worked out at 97%.

On to `COc1cc(NC(=O)Cc2ccc(-c3cc(OC4CCN(C)CC4)cc(C#N)n3)nc2)ncc1Cl` [Compound 176, N-(5-chloro-4-methoxypyridin-2-yl)-2-(6′-cyano-4′-((1-methylpiperidin-4-yl)oxy)-[2,2′-bipyridin]-5-yl)acetamide], for which the IC50 fell in the range of 0.01 to 0.1 µM and the inhibition at 10 µM was found to be 96%.

On to `COc1cc(NC(=O)Cc2ccc(-c3cc(N4CC5CC4CN5C)cc(C#N)n3)nc2)ncc1Cl` (stereo not drawn) [Compound 181, N-(5-chloro-4-methoxypyridin-2-yl)-2-(6′-cyano-4′-(5-methyl-2,5-diazabicyclo[2.2.1]heptan-2-yl)-[2,2′-bipyridin]-5-yl)acetamide], for which the IC50 fell in the range of 0.01 to 0.1 µM and the inhibition at 10 µM is 92%.

As to `COc1cc(NC(=O)Cc2ccc(-c3cc(N4CC(O)C4)cc(C#N)n3)nc2)ncc1Cl` [Compound 182, N-(5-chloro-4-methoxypyridin-2-yl)-2-(6′-cyano-4′-(3-hydroxyazetidin-1-yl)-[2,2′-bipyridin]-5-yl)acetamide], the concentration for half-maximal inhibition (IC50) is more than 0.1 µM and the inhibition at 10 µM was 75%.

As for `COc1cc(NC(=O)Cc2ccc(-c3cc(OC4COC4)cc(C#N)n3)nc2)ncc1Cl` [Compound 184, N-(5-chloro-4-methoxypyridin-2-yl)-2-(6′-cyano-4′-(oxetan-3-yloxy)-[2,2′-bipyridin]-5-yl)acetamide], the IC50 is 0.01 to 0.1 µM and the inhibition at 10 µM came to 80%.

For the compound `COc1cc(NC(=O)Cc2ccc(-c3ccc(C#N)cc3)nc2)ncc1Cl` [Compound 188, N-(5-chloro-4-methoxypyridin-2-yl)-2-(6-(4-cyanophenyl)pyridin-3-yl)acetamide], the IC50 is more than 0.1 µM and the inhibition at 10 µM was 65%.

As for `COc1cc(NC(=O)Cc2ccc(-c3cccc(C#N)c3)nc2)ncc1Cl` [Compound 189, N-(5-chloro-4-methoxypyridin-2-yl)-2-(6-(3-cyanophenyl)pyridin-3-yl)acetamide], the IC50 is more than 0.1 µM and the inhibition at 10 µM was 82%.
